Measured values: patent US5492890A, “Polypeptides for promoting cell attachment” (The Scripps Research Institute, priority 1991, dated 1996)

Legend:
GPIIb-IIIa [1] = biological target: T1, GPIIb-IIIa (Homo sapiens, UniProt P05106+P08514); test: Inhibition of 125I-Fn binding to immobilized GPIIb-IIIa by fusion proteins (competition binding); details: varying concentrations, FIG. 3
T1 construct: platelet membrane GPIIb-IIIa protein from lysed platelets; from tissue
Method: The ability of a fusion protein or polypeptide of the present invention to inhibit the binding interaction between GPIIb-IIIa and either fibronectin or fibrinogen was measured by competition binding to immobilized GPIIb-IIIa.
Incubate the GPIIb-IIIa in the plate for 16 hours at 4° C., then the unbound material is removed from the wells which are then blocked with 150 μl of 5% BSA in the same buffer for 1 hour at room temperature. Wash the wells three times with 150 μl of Tyrode's buffer with 5 mM HEPES, 1 mM MgCl2, 1 mg/ml dextrose, 1 mg/ml BSA. […] Incubate 4 hours to overnight at room temperature (with lead shield).
Carefully remove radioactive samples and wash 3 times with 150 μl Tyrodes with 5 mM HEPES, 1 mMMgCl2, 1 mg/ml dextrose, 1 mg/ml BSA. Count with a Gamma Counter and elute by boiling in SDS-PAGE loading Buffer.
In an alternative embodiment, non-radioactive Fn may be used instead of radioactive, and detected by reacting with an appropriate anti-Fn antibody and HRP-conjugated secondary antibody. Using this variation, each antibody is incubated with the washed plate for 1 hr. The anti-Fn antibody is titrated, but a 1:1000 dilution of HRP-conjugated antibody from most manufacturers works fine.

GPIIb-IIIa [2] = biological target: T1, GPIIb-IIIa; test: Direct binding of 125I-labelled ligands to microtiter wells coated with purified GPIIb-IIIa
Text: To determine if the insert coded polypeptide containing fibronectin residues 1235-1436 bound GPIIb-IIIa, the capacity of microtiter wells coated with purified GPIIb-IIIa to bind the radiolabelled fusion-protein preparation was ascertained (Table 3). In addition, the radiolabelled material bound to the insolubilized GPIIb-IIIa was recovered and analyzed by SDS-PAGE followed by radioautography. […] The isolated protein products were a mixture of insert coded polypeptides containing fusion protein and maltose binding protein breakdown products. Only those bands containing the insert-coded polypeptide bound to the insolubilized GPIIb-IIIa and that binding was inhibitable by either EDTA or the monoclonal antibody FnI-16.

GPIIb-IIIa [3] = biological target: T1, GPIIb-IIIa; test: Competition assay: synthetic polypeptide inhibition of biotinylated Fn binding to purified GPIIb-IIIa; details: for inhibition of Fn binding to GPIIb-IIIa: tested at 200 μM polypeptide
Method: The competition assays are performed as described by Charo et al., J. Biol. Chem., 266:1415-1421 (1991). The competition assay is performed by first admixing into individual wells of a 96 well microtiter plate (Immunlon, Dynatech) 10 μg/ml of purified GPIIb-IIIa, prepared in Example 1, diluted in HEPES-saline buffer, pH 7.4, consisting of 10 mM HEPES, 150 mM NaCl 1 mM CaCl2 and 1 mMMgCl2. The plates are maintained for 16 hours at 4° C. to allow the purified receptor to adsorb onto the walls of the wells. The receptor-coated wells are then washed two times with Modified Tyrode's buffer, prepared as described in Example 1, to remove any non-bound receptor from the receptor-coated wells. Non-receptor-occupied sites on the microtiter wells are blocked by admixing 5% BSA dissolved in Modified Tyrode's buffer into each well and maintaining the plate for 2 hours at room temperature.
After removing the blocking solution and washing the blocked wells as described above, 50 μl of a 10 nM solution of biotinylated Fn in Modified Tyrode's buffer is admixed into each well in the presence of polypeptides prepared in Example 9a ranging in concentration from 0.1 μM to 200 μM polypeptide to form a solid-liquid phase receptor-protein admixture. Fn admixed in the absence of polypeptides served as a positive control for the competition assay. Purified Fn is prepared as described in Example 2.
The resultant purified Fn is then biotinylated as described by Dale et al., Blood, 77:1096-1099 (1991). Briefly, for biotinylation, Fn is first dialyzed into 0.1M NaHCO3 containing 0.1M NaCl at pH 8.0 and centrifuged at 100,000× g for 30 minutes at 4° C. to remove any particulate matter. The protein concentration is adjusted to 0.5 mg/ml in 50 mM sodium borate at pH 8.5. […]
The Fn-peptide admixtures are maintained in GPIIb-IIIa-coated wells for 2 hours at room temperature to allow the biotinylated Fn to bind to the receptor. Following this maintenance period, the reacted wells are washed as described above and the amount of biotinylated Fn bound to GPIIb-IIIa is determined by admixing 0.1 ml avidin bound to biotinylated horseradish peroxidase H (Hrp) (Sigma, St. Louis, Mo.) at a 1:2000 dilution to form an avidin-biotinylated Fn admixture. […] Excess avidin Hrp is removed by washing as described and the presence of biotinylated Fn bound to purified GPIIb-IIIa is detected by admixture of 50 μl of freshly prepared chromogenic substrate solution containing 4.0 mg/ml 0-phenylenediamine and 0.012% (v/v) hydrogen peroxide in CP buffer as described in Example 3a. After maintaining the color developing-reaction admixture for 10 minutes at 20° C., the reaction is stopped with the admixture of 2N H2 SO4 and the stopped reactions are measured for absorbance as described in Example 3a.

Fibronectin
inhibition of fibronectin binding to purified GPIIb-IIIa (GPIIb-IIIa [1]): inhibited fibronectin binding
binding of radiolabelled ligand to insolubilized GPIIb-IIIa (GPIIb-IIIa [2]; GPIIb-IIIa coated wells): Specific binding
125I-labelled ligand bound to GPIIb-IIIa (GPIIb-IIIa [2]; inhibitor 2 mM EDTA): 8 Counts × 10^-3
125I-labelled ligand bound to GPIIb-IIIa (GPIIb-IIIa [2]; inhibitor Mab 16.12): 12 Counts × 10^-3
125I-labelled ligand bound to GPIIb-IIIa (GPIIb-IIIa [2]; no inhibitor): 42 Counts × 10^-3

(2:197-274): polypeptide of SEQ ID NO 2 residues 197-274, Fn residues 1359-1436
inhibition of Fn binding to GPIIb-IIIa (GPIIb-IIIa [3]): inhibit Fn binding to GPIIb-IIIa

(2:248-274): synthetic polypeptide of SEQ ID NO 2 residues 248-274, Fn residues 1410-1436 (IGQQSTVSDVPRDLEVVAATPTSLLIS)
polypeptide concentration for maximal inhibition of Fn binding to GPIIb-IIIa (GPIIb-IIIa [3]; 10 nM biotinylated Fn): approximately 200 μM
competitive inhibition of Fn binding to purified GPIIb-IIIa (GPIIb-IIIa [3]; 10 nM biotinylated Fn, 0.1 to 200 μM polypeptide): competitively inhibits

(2:73-274): polypeptide of SEQ ID NO 2 residues 73-274, Fn residues 1235-1436
inhibition of Fn binding to GPIIb-IIIa (GPIIb-IIIa [3]): inhibit Fn binding to GPIIb-IIIa
